Key:
[1] = system: IκBα phosphorylation by LPS in MEF cells; test: IκBα phosphorylation after LPS, western blot; type: cell-based, Mouse; conditions: LPS 1.5 μg/ml
Procedure: SUDHL-6, RAW264.7, and MEF cells were treated with NSC697923 or DMSO (control) for 1 hour before being stimulated with the PMA (100 ng/ml), RANKL (15 ng/ml), and LPS (1.5 μg/ml) for the indicated times. The levels of IκBα phosphorylation in the indicated samples were assessed by western blotting.
HEK293T cells were grown in DMEM supplemented with 10% fetal bovine serum (FBS). Diffuse large B cell lymphoma (DLBCL) cells SUDHL-6, OCI-Ly3, OCI-Ly7, OCLLy10, and HBL-1 were cultured as previously described (Davis et al., “Constitutive Nuclear Factor KappaB Activity is Required for Survival of Activated B Cell-Like Diffuse Large B Cell Lymphoma Cells,” J. Exp. Med. 194:1861-1874 (2001) and Kim et al., “Protein Kinase C-Associated Kinase is Required for NF-kappaB Signaling and Survival in Diffuse Large B-Cell Lymphoma Cells,” Blood 111:1644-1653 (2008), each of which is hereby incorporated by reference in its entirety). RAW264.7 cells were cultured in α-MEM medium supplemented with 10% FBS. Mouse embryo fibroblasts (“MEFs”) were prepared from day 14 embryos as previously described (Kamijo et al., “Tumor Suppression at the Mouse INK4a Locus Mediated by the Alternative Reading Frame Product p19ARF,” Cell 91:649-659 (1997), which is hereby incorporated by reference in its entirety). MEFs with less than four passages were used for the experiments described here. […]

Ubc13-Uev1A = target: T1, Ubc13-Uev1A (Homo sapiens, UniProt P61088); test: In vitro ubiquitination assay, Ubc13-Uev1A; type: biochemical
T1 construct: purchased Boston Biochem Inc E2-600 (Ubc13); E2-662 (Uev1A)
Procedure: The in vitro reaction, which contains purified E1, ubiquitin, Ubc13, and Uev1A, was carried out with or without the indicated concentrations of NSC697923. The reaction products were analyzed by a ubiquitin-specific antibody on western blots. FIG. 4B is the same as FIG. 4A, except that purified GST-TRAF6 was included as the E3 in the complete reaction as indicated. […] The assay was carried out as in FIG. 4B, except that UbcHSc instead of Ubc13-Uev1A was used as the E2 in the ubiquitination reaction.
The purified recombinant proteins used in the in vitro ubiquitination reactions were all purchased from Boston Biochem Inc, except GST-TRAF6, which was expressed and purified as described above. The reactions were carried out at 37° C. for 40 minutes in a buffer containing 50 mM Tris-HCl, pH 7.5, 5 mM MgCl2, 200 μM ATP, 120 μM ubiquitin (U-100H), and 0.1 μM E1 (E-304). For the Ubc13-mediated ubiquitin chain synthesis, the reaction mixture includes 0.2 μM Ubc13 (E2-600) and […] Uev1A (E2-662) with or without GST-TRAF6 as indicated. For UbcHSc-catalyzed ubiquitination, UbcHSc (E2-627), instead of Ubc13 and Uev1A, was used in the reaction. […] The reactions were terminated by the addition of an equal volume of SDSPAGE sample buffer, and the products were analyzed by western blotting with a ubiquitin specific antibody.

OCI-Ly7 = test: Proliferation and survival of GCB DLBCL cells (trypan blue, annexin V); type: cell-based; conditions: OCI-Ly7, 24 hours
Procedure: (§1) In FIG. 8A, the GCB DLBCL cells were plated at the indicated cell concentrations and treated with various concentrations of NSC697923 for 24 hours. The effects of NSC697923 on the growth of these cells were analyzed as described in FIG. 7A. In FIG. 8B, the cells were plated at a concentration of 4×10^5 cells/ml and treated with NSC697923 as in FIG. 8A, and the apoptotic cells were analyzed as described in FIG. 7C.
(§2) Apoptosis was assayed using the 7AAD/annexin V apoptosis kit (BD Bioscience) as previously described (Kim et al., “Protein Kinase C-Associated Kinase is Required for NF-kappaB Signaling and Survival in Diffuse Large B-Cell Lymphoma Cells,” Blood 111:1644-1653 (2008), which is hereby incorporated by reference in its entirety). Analysis of the cell cycle distribution of the treated cells was carried out with propidium iodide (PI) and BrdU double staining as previously described (DeRan et al., “Assessing G1-to-S-Phase Progression after Genotoxic Stress,” Methods Mol. Biol. 782:221-230 (2011) and Su et al., “DNA Damage Induces Downregulation of Histone Gene Expression Through the G1 Checkpoint Pathway,” EMBO. J. 23:1133-1143 (2004), each of which is hereby incorporated by reference in its entirety).

SUDHL-6 = test: as above; type: cell-based; conditions: SUDHL-6, 24 hours
Procedure: as §1, §2

[2] = system: p53 signaling in OCI-Ly10 cells; test: Nuclear p53 and p21 expression, western blot; type: cell-based; conditions: 3.5 hours
Procedure: OCI-Ly10 cells were treated with indicated concentrations of NSC697923 for 3.5 hours. The level of p53 in the nuclear extract and the level of p21 in the whole cell lysates were analyzed by western blotting.

T1 sequence (P61088 whole entry): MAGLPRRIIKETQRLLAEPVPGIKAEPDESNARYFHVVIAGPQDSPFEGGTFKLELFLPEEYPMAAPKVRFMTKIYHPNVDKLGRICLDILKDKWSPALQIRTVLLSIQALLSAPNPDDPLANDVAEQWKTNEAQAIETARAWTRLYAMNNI
T1 sequence (Q13404 whole entry partner): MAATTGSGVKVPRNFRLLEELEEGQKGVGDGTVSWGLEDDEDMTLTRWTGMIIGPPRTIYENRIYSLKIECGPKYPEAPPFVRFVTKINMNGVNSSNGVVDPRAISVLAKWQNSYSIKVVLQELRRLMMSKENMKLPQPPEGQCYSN

Cc1ccc(S(=O)(=O)c2ccc([N+](=O)[O-])o2)cc1 [NSC697923, 2-nitro-5-tosylfuran]
IκBα phosphorylation by LPS [1]: inhibited | polyubiquitin chain formation catalyzed by Ubc13-Uev1A (Ubc13-Uev1A; E1, ubiquitin, Ubc13, Uev1A, without E3): inhibited polyubiquitin chain formation catalyzed by Ubc13-Uev1A complex in a dose-dependent manner | ubiquitin chain formation catalyzed by Ubc13-Uev1A together with TRAF6 (Ubc13-Uev1A; GST-TRAF6 as E3): similarly inhibited by NSC697923 in a dose-dependent manner | proliferation and survival (OCI-Ly7): inhibited proliferation and survival | proliferation and survival (SUDHL-6): inhibited proliferation and survival | nuclear level of p53 protein [2]: increased | p21 expression [2]: increased

From US9458123B2, “Methods, pharmaceutical compositions, therapeutic systems, and compounds for treating B cell malignancies” (University of Rochester, priority 2012, dated 2016)
